Counter-ions that a name gives are not always drawn.
Columns and labels:
[1] = target: T1, NDM-1 β-lactamase (class B) (Klebsiella pneumoniae, UniProt C7C422); assay: Inhibitory activity against β-lactamases (nitrocefin), NDM-1; assay type: biochemical; conditions: 100 μM nitrocefin, 30° C., pH 6.8
T1 construct: MICs of bacterial strains used for extraction of enzymes; endogenous in cells; host or cells: bacterial strain carrying NDM-1 (E. coli according to the earlier reading)
Experimental: (§1) More diluted stocks were prepared as necessary. Enzyme activity was determined by monitoring the change of absorbance at 492 nm using the characteristic molecular extinction coefficient (Δε492=17,400 M^−1 cm^−1) of nitrocefin by a Shimazu UV-1650PC spectrophotometer. The nitrocefin was purchased from OXOID. Kinetic measurements were run at 30° C. in 10 mM MES[2-(N-morpholino)ethanesulfonic acid]buffer (pH 6.8) or 10 mM MES[2-(N-morpholino)ethanesulfonic acid] buffer (pH 6.8), […] BSA and 50 mM sodium bicarbonate. Reactions were performed in 2.5 mL cuvettes with 100 μM nitrocefin and initiated by adding 1.5 nM to 2.5 nM enzyme. The first 180 s of each reaction was used to measure initial rates. Data were evaluated using Microsoft Excel. Concentration dependent inhibition of enzyme was measured using different concentrations of inhibitors resulting from two-fold dilution series. Reaction progress at every concentration of inhibitor was measured in triplicates. IC50 values were calculated using 4-parameter log fits using XL Fit curve fitting software (www.idbs.com) for Excel using the following equation:
(§2) [formula] where y is the remaining enzyme activity (in %) and x is the corresponding concentration. he fitted IC50 parameter is the relative IC50, and is defined as the concentration giving a response half way between the fitted top (B) and bottom (A) of the curve.

[2] = target: KPC-3 β-lactamase (class A) (Klebsiella pneumoniae, UniProt Q9F663, H272Y); assay: Inhibitory activity against β-lactamases (nitrocefin), KPC-3; assay type: biochemical, K. pneumoniae
Experimental: as §1, §2

[3] = system: K. pneumoniae clinical strains expressing β-lactamases; assay: BLI potentiation MIC, panel of K. pneumoniae clinical strains expressing β-lactamases (isoxazoline vs. isoxazole); assay type: cell-based; conditions: in combination with Meropenem and LCB10-0200; Table 12
Experimental: MIC90 (μg/mL) is the lowest concentration of an antibiotic that will inhibit the visible growth of 90% of microorganisms after incubation as compared with a control group to which the antibiotic is not treated.
MIC values were measured by the broth microdilution method developed by the Clinical and Laboratory Standards Institute (CLSI) (see CLSI M07-A9, Methods for Dilution Antimicrobial Susceptibility Test for Bacteria that Grow Aerobically; Approved Standard-Ninth Edition (2012): CLSI, Villanova, Pa.). The in vitro antibacterial activity was measured with respect to the following 9 clinical isolates: P. aeruginosa (3 strains); K. pneumoniae (6 strains). The in vitro antibacterial activity of selected compounds was measured with respect to the following 15 clinical isolates: K. pneumoniae (15 strains).

[4] = target: T2, OXA-48 β-lactamase (class D) (Klebsiella pneumoniae, UniProt Q6XEC0); assay: Inhibitory activity against β-lactamases (nitrocefin), OXA-48; assay type: biochemical; conditions: 100 μM nitrocefin, 30° C., pH 6.8
T2 construct: MICs of bacterial strains used for extraction of enzymes; endogenous in cells; host or cells: bacterial strain carrying OXA-48 (E. coli according to the earlier reading)
Experimental: as §1, §2

[5] = target: T3, CMY-10 β-lactamase (class C) (Klebsiella aerogenes, UniProt Q99QC1); assay: Inhibitory activity against β-lactamases (nitrocefin), CMY-10; assay type: biochemical
T3 construct: MICs of bacterial strains used for extraction of enzymes; endogenous in cells
Experimental: as §1, §2

T2 sequence (Q6XEC0 23-265, looked up): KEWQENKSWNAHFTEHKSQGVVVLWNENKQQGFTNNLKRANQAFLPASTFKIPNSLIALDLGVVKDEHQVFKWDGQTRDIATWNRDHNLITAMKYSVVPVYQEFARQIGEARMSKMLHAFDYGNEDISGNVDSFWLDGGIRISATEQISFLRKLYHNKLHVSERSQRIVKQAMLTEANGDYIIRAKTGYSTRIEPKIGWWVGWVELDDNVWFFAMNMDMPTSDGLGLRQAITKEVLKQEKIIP
T3 sequence (Q99QC1 24-382): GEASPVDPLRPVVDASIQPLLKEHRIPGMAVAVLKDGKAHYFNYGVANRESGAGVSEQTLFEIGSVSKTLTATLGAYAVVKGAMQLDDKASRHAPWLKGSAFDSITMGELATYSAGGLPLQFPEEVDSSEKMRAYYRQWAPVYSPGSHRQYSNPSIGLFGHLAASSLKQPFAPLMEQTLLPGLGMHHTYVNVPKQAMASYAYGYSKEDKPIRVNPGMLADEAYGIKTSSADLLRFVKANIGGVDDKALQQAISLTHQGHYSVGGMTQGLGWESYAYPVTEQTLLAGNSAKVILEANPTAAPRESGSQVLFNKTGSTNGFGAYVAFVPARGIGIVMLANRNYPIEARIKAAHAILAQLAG
T1 sequence (C7C422 29-270, looked up): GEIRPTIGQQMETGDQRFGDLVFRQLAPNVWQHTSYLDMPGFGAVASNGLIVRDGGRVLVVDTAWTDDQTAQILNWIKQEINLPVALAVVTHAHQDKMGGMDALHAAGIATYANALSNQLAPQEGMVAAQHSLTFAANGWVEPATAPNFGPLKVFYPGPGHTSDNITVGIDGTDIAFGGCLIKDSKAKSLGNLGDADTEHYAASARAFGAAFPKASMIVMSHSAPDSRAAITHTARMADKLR
Chain of KPC-3 β-lactamase (class A) (Q9F663 25-293 H272Y): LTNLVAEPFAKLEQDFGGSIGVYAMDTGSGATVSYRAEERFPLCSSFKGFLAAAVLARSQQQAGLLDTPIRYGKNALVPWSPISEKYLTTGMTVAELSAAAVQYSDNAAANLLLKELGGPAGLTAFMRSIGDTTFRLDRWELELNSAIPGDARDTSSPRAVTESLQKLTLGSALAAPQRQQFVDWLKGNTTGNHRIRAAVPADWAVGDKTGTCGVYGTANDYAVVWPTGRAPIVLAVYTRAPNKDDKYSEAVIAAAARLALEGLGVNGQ

`NC[C@H]1CC([C@@H]2CC[C@@H]3CN2C(=O)N3OS(=O)(=O)O)=NO1` [Example 15, [(2S)-2-[(5R)-5-(aminomethyl)-4,5-dihydroisoxazol-3-yl]-7-oxo-1,6-diazabicyclo[3.2.1]octan-6-yl] hydrogen sulfate] was tested, and the IC50 [1] was 1650 µM, the IC50 [2] was 3.03 µM and the “coverage on various β-lactamases compared with Cubist-1” value [3] was “much broader coverage on various β-lactamases than Cubist-1”. The IC50 [4] was 6.42 µM and the IC50 [5] was 0.123 µM.
